Series [1] relates to etoposide-treated IMR-90 cells. The series can be described thus: Etoposide-induced senescence model, resazurin cell viability (screen and dose-response). The format is cell-based, human. Conditions: for senolytic activity in screen: 3 days; for Therapeutic Index (TI): etoposide-induced senescence model, ratio of IC50 values between etoposide- and DMSO-treated IMR-90 fibroblasts. The gist of the method: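 IMR-90 fibroblasts made senescent with 50 μM etoposide for 2 days, then 4 days recovery before plating. Compounds at 10 μM or 1 μM final (screen) or three-fold dilutions (1% DMSO) for 3 days, then 0.15 mM resazurin 1 day, fluorescence 550/590 nm. Viability expressed as fraction of untreated controls; biological duplicates.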

For the next series, the system named is primary human T-cells. Put plainly: Cytotoxicity to T-cells in vitro. The format is cell-based. The following applies: for T-cell death: at about 0.1 μM; for IC50: primary human T-cells, read-out: T-cell cytotoxicity IC50.
The conditions of series [2]: Phase II, lung carcinoma; cited from earlier work.
The next series relates to HEK293 cells. Put plainly: Cytotoxicity against HEK293 cells (resazurin). The format is cell-based, human. The following applies: 3 days treatment; curve-fitting, two biological replicates. The procedure:
(§1) Measuring cytotoxicity against HepG2 and HEK293 cells. Cytotoxicity in human embryonic kidney (HEK293) and liver carcinoma (HepG2) cells was assayed as above using a resazurin assay. Cells were obtained from ATCC (ATCC CRL-1573 and HB-8065), passaged <10 times, and grown in Dulbecco's modification of Eagle's Medium (DMEM: Corning 10^−013-CV) supplemented with 10% FBS and 1% penicillin-streptomycin. 99 μL of cells were plated into each well of a 96-well clear flat-bottom, black polystyrene tissue-culture-treated plate at a density of ˜10+ cells/well, and plates were incubated overnight for adhesion. The day after plating. 1 μL of each compound, prepared as two-fold serial dilutions of 5 mM stock solutions in DMSO, was added to each well. Cells were incubated for 3 days, after which resazurin was added to each well to a final concentration of 0.15 mM. After an additional 1 day of incubation, the fluorescence excitation/emission at 550/590 nm was read using a SpectraMax M3 plate reader. Experiments were performed in biological duplicate. IC50 values were determined by normalizing with respect to the fluorescence intensity values of untreated control cells on day 3, as described in Calculation of cellular viability values in dose-response curves above.
In general terms: Resazurin is reduced to fluorescent resorufin, in cell work by metabolically active cells.

Another series relates to HepG2 cells. The series can be described thus: Cytotoxicity against HepG2 cells (resazurin). The format is cell-based, human. The following applies: 3 days treatment; curve-fitting, two biological replicates. Here is the method:
as §1

The next series concerns human red blood cells. Put plainly: Hemolysis assay. The format is cell-based. The procedure:
Hemolysis assay. Whole human blood containing EDTA (Innovative Resarch IWB1K2E) was centrifuged at 120×g at 4° C., for 5 min and resuspended in Dulbecco's PBS (DPBS: VWR 02-0119-0500). These washing steps were repeated until the supernatant was clear. Red blood cells were then resuspended in DPBS to 5×10^8 cells/mL, and 100 μL of cells was plated into each well of a 96-well clear round-bottom plate. Compounds were added to the indicated concentrations, and DMSO was used as a vehicle. Samples were incubated for 1 h at 37° C., without shaking, after which plates were centrifuged at 1500×g at room temperature for 5 min to pellet cells. 60 μL of the supernatant from each sample was then transferred to a 96-well clear flat-bottom plate, and the absorbance was read at 405 nm using a SpectraMax M3 plate reader to quantify the amount of soluble hemoglobin. Fractional hemolysis was determined by linearly interpolating absorbance values with respect to a positive control (saturation with 10% Triton X-100) and a negative control (1% DMSO vehicle). Results are depicted in FIG. 14.

Series [3] concerns Salmonella typhimurium TA100. The series can be described thus: Genotoxicity assay (Ames 384-ISO test). It counts as cell-based. The following applies: 100 μM. The procedure:
Genotoxicity assay. An Ames 384-ISO test (6041-1S) from Environmental Bio-Detection Products, Inc, was used following the manufacturer's instructions. Briefly. Salmonella typhimurium TA100 was grown overnight (16-18 h) at 37° C., with shaking at 300 rpm and treated with the provided exposure media and compound samples at the final concentrations indicated. Treatment with the provided 4-nitroquinoline 1-oxide (4NQO), a mutagen, was used as a positive control. Cells were then added to the provided reversion solution, and each sample was split into 48 wells of 384-well plates. Plates were incubated at 37° C., for 2 days, after which the number of revertant (yellow-colored) wells corresponding to each sample was counted. […] An overnight bacterial culture was diluted 1:10.000 in LB medium (Becton Dickinson 244620) and plated using 99 μL working volumes into the wells of a clear flat-bottom 96-well plate. One μL of two-fold dilutions of each test compound in DMSO, starting from a final concentration of 500 μM, was added across wells, and plates were sealed and incubated overnight at 37° C., to determine bacterial growth.

For series [4] the following is noted: cited from earlier work.
Another series addresses Mcl-1 (Homo sapiens, UniProt Q07820). Put plainly: Mcl-1 TR-FRET. It counts as binding. In general terms: Time-resolved FRET reads energy transfer from a long-lived donor to a nearby acceptor.
The next series has as its system ex vivo human skin. Put plainly: Ex vivo aged human skin model. The procedure: IBX-100 was first tested in ex vivo skin for safety.
IBX-100 was further tested in ex vivo skin for efficacy, p16 mRNA expression was measured after 5 days of topical application of IBX-100 on an older subject (e.g. Person, Fitzpatrick type 2) skin, and compared to vehicle values.

For series [5], the system named is wounded ex vivo human skin. The series can be described thus: Ex vivo wounded skin model. Here is the method:
For the younger skin sample, RNA expression levels of collagen (Col1a1) and matrix metallopeptidase 9 (MMP9) were additionally measured. Higher levels of Col1a1 may be associated with senescence and scarring.
IBX-100 was tested again for safety in a combination dosing regimen. IBX-100 was formulated as a 10% solution in 100% DMSO and applied directly by pipetting 5 μL on wounded younger skin (e.g. Person, Fitzpatrick type 2-3). Additionally, IBX-100 was administered to the culture medium at a final concentration of about 100 μg/mL, by adding 1 μL of a 100 mg/mL solution in DMSO to 1 mL of culture media, as a model of systemic administration.
To test efficacy. IBX-100 was applied both topically and systemically as described above every 24 h for 5 days. On day 6, the skin biopsies were excised, and p16. Col1a1, and MMP9 RNA expression was measured inside each wound. Compared to vehicle (e.g., DMSO) values, p16. Col1a1, and MMP9 expression was decreased, on average, by ˜30%. ˜ 60%, and ˜60%, respectively, with administration of IBX-100 (FIG. 19).

Series [6] is described as follows: Cytotoxicity to T-cells in vitro. It counts as cell-based, human. The following applies: human, primary human T-cells; read-out: T-cell cytotoxicity IC50.
Where [7] appears, read: 10 μM, active: control viability >0.5, Snc/control ratio <0.7.
Setting [8] is: topical and systemic every 24 h for 5 days, day 6.

Bounds are passed on as bounds.

The source of these data is patent US20260097022A1, “COMPOUNDS AND USES THEREOF” (Integrated Biosciences, Inc., priority 2023, published 2026).

Sequence of Mcl-1 (Q07820 whole entry, species assumed): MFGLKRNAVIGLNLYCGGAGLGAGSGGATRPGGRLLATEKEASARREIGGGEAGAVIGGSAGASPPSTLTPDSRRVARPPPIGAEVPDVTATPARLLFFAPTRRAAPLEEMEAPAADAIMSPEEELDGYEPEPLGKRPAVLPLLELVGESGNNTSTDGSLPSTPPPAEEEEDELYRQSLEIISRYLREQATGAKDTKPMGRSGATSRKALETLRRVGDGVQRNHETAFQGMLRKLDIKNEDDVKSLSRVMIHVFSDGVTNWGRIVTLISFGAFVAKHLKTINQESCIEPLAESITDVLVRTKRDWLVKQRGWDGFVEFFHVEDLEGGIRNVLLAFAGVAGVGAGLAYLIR

The IC50 is the concentration needed to halve the response being measured. With `CC1(C)CCC(c2ccc(Cl)cc2)=C(CN2CCN(c3ccc(C(=O)NS(=O)(=O)c4ccc(N[C@H](CCN5CCOCC5)CSc5ccccc5)c(S(=O)(=O)C(F)(F)F)c4)cc3)CC2)C1` [ABT-263], in series [1] (1 μM), the “senolytic activity in screen” value was “inactive”. Besides, the “senolytic activity in screen” value in series [1] (setting [7]) is listed as “active”. For the same compound, in the series on primary human T-cells, the T-cell death entry is “substantial cell death” and the IC50 is ~1 µM. Moreover, the “side effects in patients” value in series [2] was “thrombocytopenia and neutropenia were common side effects”. Take `CN(C)CC[C@H](CSc1ccccc1)Nc1ccc(S(=O)(=O)NC(=O)c2ccc(N3CCN(Cc4ccccc4-c4ccc(Cl)cc4)CC3)cc2)cc1[N+](=O)[O-]` [ABT-737, reference compound]: the “senolytic activity in screen” value is “inactive” in series [1] (1 μM) and “active” in [1] (setting [7]). The IC50 with HEK293 cells was 28.8 µM; in the series with HepG2 cells, 132 µM; with primary human T-cells, ~1 µM. For the same compound, the hemolysis entry in the series with human red blood cells (up to a final concentration of 100 μM, 1 h at 37° C.) was “did not induce significant hemolysis”. Besides, in series [3], the “reversion of bacterial cultures (mutagenic potential)” value is “did not induce significant reversion”. The T-cell death entry in the series with primary human T-cells is “substantial cell death”. Moreover, the bioavailability entry in [4] is on record as “limited bioavailability”. On to Triton X-100 [reference compound], for which the hemolysis result in the series on human red blood cells (concentrations ≥0.01% (w/w), positive control) is “substantial hemolysis”. For `CC1(C)CCC(CN2CCN(c3ccc(C(=O)NS(=O)(=O)c4ccc(NCC5CCOCC5)c([N+](=O)[O-])c4)c(Oc4cnc5[nH]ccc5c4)c3)CC2)=C(c2ccc(Cl)cc2)C1` [ABT-199], in the series with primary human T-cells, the T-cell death entry is on record as “substantial cell death” and the half-inhibitory concentration (IC50) was ~1 µM. Take `CCOc1ccc(NC(=O)CSc2nc3ccc(NC(=O)c4ccccc4C)cc3s2)cc1` [compound 1]: the half-inhibitory concentration (IC50) against Mcl-1 is > 100 µM. For the same compound, the “safety in ex vivo skin” value with ex vivo human skin (5% topical ointment in 10% DMSO: 45% PEG300:45% water, older and younger subject skin) was “No adverse effects”. The “average decrease in p16 mRNA expression compared to vehicle” value in the series with ex vivo human skin (5 days of topical application, older subject skin, three samples) was “approximately 40%”. Besides, the “safety in wounded ex vivo skin” value in series [5] (10% solution in DMSO topically and about 100 μg/mL in culture medium) is on record as “no adverse effects”. Also, in [5] (setting [8]), the “average decrease in Col1a1 RNA expression inside wound compared to vehicle” value is listed as ~60%, the “average decrease in MMP9 RNA expression inside wound compared to vehicle” value is ~60% and the “average decrease in p16 RNA expression inside wound compared to vehicle” value was ~30%. Besides, the 50% inhibitory concentration (IC50) in series [6] was > 100 µM. `O=c1c(O)c(-c2ccc(O)c(O)c2)oc2cc(O)ccc12` [fisetin]: the bioavailability result in series [4] is “limited bioavailability”. Regarding `COc1ccccc1C(=O)Nc1ccc2nc(SCC(=O)Nc3c(C)cccc3C)sc2c1` [compound 59], the “Therapeutic Index (TI)” value in series [1] is on record as “++ (compounds with a TI of 1 to 5 were labelled as ++)”. As for `Cc1cccc(NC(=O)CSc2nc3ccc(NC(=O)c4ccccc4)cc3s2)c1C` [compound 150], the “Therapeutic Index (TI)” value in [1] is recorded as “+ (Compounds with a TI of <1 were labelled as +)”. Take `Cc1cc(C)c(NC(=O)CSc2nc3ccc(NC(=O)c4ccccc4C)cc3s2)c(C)c1` [compound 72]: the “Therapeutic Index (TI)” value in [1] was “++ (compounds with a TI of 1 to 5 were labelled as ++)”. Same read-out and setting: under `CC(=O)c1ccc(NC(=O)CSc2nc3ccc(NC(=O)c4cccc(C)c4)cc3s2)cc1` [compound 138] stands “++ (compounds with a TI of 1 to 5 were labelled as ++)”; under `CCOc1ccc(C(=O)Nc2ccc3nc(SCC(=O)Nc4ccccc4)sc3c2)cc1` [compound 119], “++ (compounds with a TI of 1 to 5 were labelled as ++)”. Same read-out and setting: under `COc1ccc(C(=O)Nc2ccc3nc(SCC(=O)Nc4ccccc4)sc3c2)cc1OC` [compound 5] stands “+++ (compounds with a TI of >5 were labeled as +++)”; under `COc1ccccc1C(=O)Nc1ccc2nc(SCC(=O)Nc3ccc(F)cc3)sc2c1` [compound 84], “++ (compounds with a TI of 1 to 5 were labelled as ++)”. As for `Cc1noc(NS(=O)(=O)c2ccc(N)cc2)c1C` [sulfisoxazole, reference compound], the “senolytic activity in screen” value in series [1] (1 μM) is recorded as “active”. In the case of `COc1ccc(C(=O)Nc2ccc3nc(SCC(=O)Nc4cccc(C)c4)sc3c2)cc1` [compound 83], the “Therapeutic Index (TI)” value in series [1] is reported as “++ (compounds with a TI of 1 to 5 were labelled as ++)”. Still for that read-out and setting: under `O=C(Nc1ccc2nc(SCC(=O)N3CCc4ccccc43)sc2c1)c1cccc(F)c1` [compound 31] stands “++ (compounds with a TI of 1 to 5 were labelled as ++)”.

Consider `COc1ccccc1C(=O)Nc1ccc2nc(SCC(=O)N(C)c3ccccc3)sc2c1` [compound 71], for which the “Therapeutic Index (TI)” value in series [1] is “++ (compounds with a TI of 1 to 5 were labelled as ++)”. On the same count and under the same terms, to `Cc1ccccc1C(=O)Nc1ccc2nc(SCC(=O)Nc3ccc(Br)cc3)sc2c1` [compound 121] belongs “++ (compounds with a TI of 1 to 5 were labelled as ++)”; to `CCOc1ccc(C(=O)Nc2ccc3nc(SCC(=O)Nc4ccccc4Cl)sc3c2)cc1` [compound 64], “++ (compounds with a TI of 1 to 5 were labelled as ++)”. With `COc1cccc(C(=O)Nc2ccc3nc(SCC(=O)Nc4ccccc4C)sc3c2)c1` [compound 165], in series [1], the “Therapeutic Index (TI)” value is “+ (Compounds with a TI of <1 were labelled as +)”.

`O=C(Nc1ccc2nc(SCC(=O)N3CCc4ccccc43)sc2c1)c1ccccc1Cl` [compound 132]: the “Therapeutic Index (TI)” value in series [1] was “++ (compounds with a TI of 1 to 5 were labelled as ++)”. Same read-out and setting: to `CCOc1ccc(NC(=O)C(C)Sc2nc3ccc(NC(=O)c4ccc(OC)cc4)cc3s2)cc1` (stereo not drawn) [compound 41] belongs “++ (compounds with a TI of 1 to 5 were labelled as ++)”.
